Like-named read-outs stand apart in the source and are kept apart here.
How the values were obtained:
[1] = biological target: T1, hNaV1.6 channel (Homo sapiens, UniProt Q9UQD0); assay: Automated patch-clamp, Na+ currents in HEK293-hNaV1.6 cells; type: cell-based; conditions: 10 µM
T1 construct: expressed in transfected cells
Experimental: (§1) GH3b6 cells are a subclone of the GH3 pituitary cell line and were a generous gift from Dr. Françoise Macari (IGF, Montpellier, France). GH3b6 cells were cultivated from passage 14 until passage 32 at 37 °C/5% CO2 in Dubelcco’s Modified Eagle Medium (DMEM)/F12 (Lonza, Basel, Switzerland), supplemented with 10% FBS (Lonza, Basel, Switzerland), 1 mM L-glutamine, and 1 mM penicillin and streptomycin solution. For the fluorescence assay, the GH3b6 cells were seeded in black-walled, clear-bottom, 96-well, tissue culture-treated, and sterile imaging plates (Corning Hazebrouck, France), at a density of 10,000 cells per well, and incubated for 24 h before starting the experiment. The human Nav1.3 (hNav1.3) channel-expressing cell line (HEK293) used in this work was a generous gift from Massimo Mantegazza (IPMC, Nice, France). HEK293-hNaV1.3 cells were cultivated from passage 20 until passage 35 at 37 °C/5% CO2 in a DMEM high glucose medium (4.5 g/l), supplemented with 10% FBS, pyruvate, L-glutamine, and penicillin and streptomycin solution, each one at 1 mM, completed with 800 µg/mL geneticin G418. For the fluorescence assays, the cells were plated at a density of 50,000 cells per well in black-walled, clear-bottom, 96-well plates and then cultured at 37 °C and 5% CO2 for 24 h before the experiments. HEK293 stably expressing hNaV1.2 and hNaV1.6 were cultivated in the same conditions mentioned above for the HEK293-hNaV1.3 cells. For the automated patch-clamp experiments, cells were passaged from 24 to 48 h prior to the experiment and replated in the appropriate quantity to reach 50–70% confluence. For electrophysiological recordings, cells were detached with trypsin-EDTA and diluted in a culture medium. Then, the cells were centrifuged at 800 rpm for 4 min and resuspended (~300,000 cells/mL) in a patch-clamp extracellular solution.
(§2) Whole-cell recordings were used to investigate the effects of oxostephanine, liriodenine, thalmiculine, bebeerine, and protopine on HEK293 cells stably expressing the hNav1.2, hNav1.3, and hNav1.6 channels. Automated patch-clamp recordings were performed using the SyncroPatch 384PE from Nanion (München, Germany). Chips with a single hole (n = 384, series resistance 3.93 ± 1.19 MΩ) were used for HEK293 cell recordings. Pulse generation and data collection were performed with the PatchControl384 v1.9.7 software (Nanion) and the Biomek interface (Beckman Coulter). Whole-cell recordings were conducted according to the recommended procedures of Nanion. The cells were stored in a cell hotel reservoir at 10 °C, with a shaking speed of 60 RPM. After initiating the experiment, cell catch, sealing, whole-cell formation, liquid application, recording, and data acquisition were all performed sequentially and automatically. The intracellular solution contained (in mM): 10 CsCl, 110 CsF, 10 NaCl, 10 EGTA, and 10 HEPES (pH 7.2, osmolarity 280 mOsm), and the extracellular solution contained (in mM): 60 NMDG, 80 NaCl, 4 KCl, 2 CaCl2, 1 MgCl2, 5 Glucose, and 10 HEPES (pH 7.4 (NaOH), osmolarity 280 ± 3 mOsm). Whole-cell experiments were performed at a holding potential of −100 mV at room temperature (18–22 °C). Currents were sampled at 20 kHz. For pharmacological assays, alkaloid solutions were prepared at 30 µM in the extracellular solution supplemented with 0.3% bovine serum albumin and distributed in 384-well compound plates according to a pre-established plate plan. This distribution within compound plates could not be randomized since it would then excessively complexify the methods of analyses. The working compound solution was diluted 3 times in the patch-clamp recording well by adding from 30 to 60 µL of the external solution to reach the final reported concentration and the test volume of 90 µL. The effects of IA (10 µM) or of BTX (1 µM) were measured at the end of a 10 min application time. Activation curves were built by depolarizations lasting for 2000 ms, from −130 mV to 40 mV, using 5 mV increment steps. […]

[2] = biological target: human NaV1.3 channel (Homo sapiens, UniProt Q9NY46); assay: ANG-2 intracellular Na+ fluorescent assay in HEK293-hNaV1.3 cells; type: cell-based; conditions: IA at 10 µM; BTX 3 µM; HEK293-hNaV1.3; read-out: Inhibition of BTX-induced [Na+]i elevation (ANG-2 signal)
[3] = test system: NaV channels endogenously expressed in GH3b6 cells; assay: FRET voltage sensor probe (VSP) assay of BTX-induced depolarization in GH3b6 cells; type: cell-based, rat; conditions: GH3b6 cells; for IC50: read-out: IC50 (µM), inhibition of BTX-evoked VSP signal
[4] = biological target: T2, hNaV1.3 channel (Homo sapiens, UniProt Q9NY46); assay: Automated patch-clamp, Na+ currents in HEK293-hNaV1.3 cells; type: cell-based
T2 construct: expressed in transfected cells
Experimental: as §1, §2

[5] = biological target: T3, hNaV1.2 channel (Homo sapiens, UniProt Q99250); assay: Automated patch-clamp, Na+ currents in HEK293-hNaV1.2 cells; type: cell-based; conditions: 10 µM
T3 construct: expressed in transfected cells
Experimental: as §1, §2

[6] = test system: Na+ currents recorded in isolated cardiomyocytes; conditions: cited from earlier work
[7] = 10 µM IA in the presence of 1 µM BTX

T2 sequence (Q9NY46 whole entry): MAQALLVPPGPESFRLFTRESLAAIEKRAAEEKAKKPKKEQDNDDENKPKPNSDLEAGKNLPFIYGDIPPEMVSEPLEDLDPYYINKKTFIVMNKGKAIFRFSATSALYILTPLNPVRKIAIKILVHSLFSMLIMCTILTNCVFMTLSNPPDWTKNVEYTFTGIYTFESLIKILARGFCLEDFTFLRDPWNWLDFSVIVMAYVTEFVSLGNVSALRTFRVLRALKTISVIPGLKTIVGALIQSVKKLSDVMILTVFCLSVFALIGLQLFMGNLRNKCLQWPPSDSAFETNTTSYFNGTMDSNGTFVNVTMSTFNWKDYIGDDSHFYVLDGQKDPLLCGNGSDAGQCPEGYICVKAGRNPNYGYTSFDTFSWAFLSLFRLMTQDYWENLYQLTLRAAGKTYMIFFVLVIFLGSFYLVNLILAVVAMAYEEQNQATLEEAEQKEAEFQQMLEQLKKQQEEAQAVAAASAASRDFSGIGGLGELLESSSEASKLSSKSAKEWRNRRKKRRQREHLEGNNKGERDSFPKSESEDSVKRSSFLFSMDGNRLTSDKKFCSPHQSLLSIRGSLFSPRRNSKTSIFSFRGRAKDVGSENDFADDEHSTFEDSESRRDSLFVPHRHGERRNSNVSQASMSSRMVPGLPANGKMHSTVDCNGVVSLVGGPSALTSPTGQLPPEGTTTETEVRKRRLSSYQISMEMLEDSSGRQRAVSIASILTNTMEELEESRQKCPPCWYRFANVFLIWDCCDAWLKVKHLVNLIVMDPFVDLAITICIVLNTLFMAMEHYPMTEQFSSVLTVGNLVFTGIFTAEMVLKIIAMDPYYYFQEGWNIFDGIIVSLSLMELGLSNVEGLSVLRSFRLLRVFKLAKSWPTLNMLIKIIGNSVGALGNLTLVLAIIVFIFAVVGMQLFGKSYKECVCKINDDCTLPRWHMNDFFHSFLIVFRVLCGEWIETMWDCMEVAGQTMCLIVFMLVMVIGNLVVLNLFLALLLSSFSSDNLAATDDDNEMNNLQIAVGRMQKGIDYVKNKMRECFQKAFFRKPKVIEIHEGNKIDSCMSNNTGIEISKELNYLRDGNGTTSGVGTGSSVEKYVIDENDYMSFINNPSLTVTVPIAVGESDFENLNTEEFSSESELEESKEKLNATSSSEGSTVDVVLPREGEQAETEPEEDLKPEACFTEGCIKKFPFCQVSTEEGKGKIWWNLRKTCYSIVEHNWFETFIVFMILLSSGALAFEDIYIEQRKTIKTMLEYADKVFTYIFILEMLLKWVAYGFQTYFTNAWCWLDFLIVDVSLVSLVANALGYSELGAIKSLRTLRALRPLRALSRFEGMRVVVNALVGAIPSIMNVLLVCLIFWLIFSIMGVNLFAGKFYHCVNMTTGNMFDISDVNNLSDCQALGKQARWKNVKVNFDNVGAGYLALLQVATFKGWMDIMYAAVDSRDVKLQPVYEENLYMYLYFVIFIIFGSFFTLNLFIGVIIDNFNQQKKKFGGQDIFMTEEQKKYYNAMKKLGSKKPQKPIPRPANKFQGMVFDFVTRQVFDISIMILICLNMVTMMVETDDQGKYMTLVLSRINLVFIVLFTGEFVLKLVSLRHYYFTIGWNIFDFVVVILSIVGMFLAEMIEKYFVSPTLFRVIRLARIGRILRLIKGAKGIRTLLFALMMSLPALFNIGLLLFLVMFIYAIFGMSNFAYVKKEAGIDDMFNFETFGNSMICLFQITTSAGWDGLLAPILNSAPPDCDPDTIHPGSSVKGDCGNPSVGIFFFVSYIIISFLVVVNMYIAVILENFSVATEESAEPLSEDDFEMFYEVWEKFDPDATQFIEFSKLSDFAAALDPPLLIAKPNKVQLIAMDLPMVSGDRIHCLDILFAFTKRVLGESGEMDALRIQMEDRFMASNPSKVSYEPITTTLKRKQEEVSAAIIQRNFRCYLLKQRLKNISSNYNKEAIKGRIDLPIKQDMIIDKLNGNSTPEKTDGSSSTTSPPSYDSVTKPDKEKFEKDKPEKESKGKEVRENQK
T1 sequence (Q9UQD0 whole entry): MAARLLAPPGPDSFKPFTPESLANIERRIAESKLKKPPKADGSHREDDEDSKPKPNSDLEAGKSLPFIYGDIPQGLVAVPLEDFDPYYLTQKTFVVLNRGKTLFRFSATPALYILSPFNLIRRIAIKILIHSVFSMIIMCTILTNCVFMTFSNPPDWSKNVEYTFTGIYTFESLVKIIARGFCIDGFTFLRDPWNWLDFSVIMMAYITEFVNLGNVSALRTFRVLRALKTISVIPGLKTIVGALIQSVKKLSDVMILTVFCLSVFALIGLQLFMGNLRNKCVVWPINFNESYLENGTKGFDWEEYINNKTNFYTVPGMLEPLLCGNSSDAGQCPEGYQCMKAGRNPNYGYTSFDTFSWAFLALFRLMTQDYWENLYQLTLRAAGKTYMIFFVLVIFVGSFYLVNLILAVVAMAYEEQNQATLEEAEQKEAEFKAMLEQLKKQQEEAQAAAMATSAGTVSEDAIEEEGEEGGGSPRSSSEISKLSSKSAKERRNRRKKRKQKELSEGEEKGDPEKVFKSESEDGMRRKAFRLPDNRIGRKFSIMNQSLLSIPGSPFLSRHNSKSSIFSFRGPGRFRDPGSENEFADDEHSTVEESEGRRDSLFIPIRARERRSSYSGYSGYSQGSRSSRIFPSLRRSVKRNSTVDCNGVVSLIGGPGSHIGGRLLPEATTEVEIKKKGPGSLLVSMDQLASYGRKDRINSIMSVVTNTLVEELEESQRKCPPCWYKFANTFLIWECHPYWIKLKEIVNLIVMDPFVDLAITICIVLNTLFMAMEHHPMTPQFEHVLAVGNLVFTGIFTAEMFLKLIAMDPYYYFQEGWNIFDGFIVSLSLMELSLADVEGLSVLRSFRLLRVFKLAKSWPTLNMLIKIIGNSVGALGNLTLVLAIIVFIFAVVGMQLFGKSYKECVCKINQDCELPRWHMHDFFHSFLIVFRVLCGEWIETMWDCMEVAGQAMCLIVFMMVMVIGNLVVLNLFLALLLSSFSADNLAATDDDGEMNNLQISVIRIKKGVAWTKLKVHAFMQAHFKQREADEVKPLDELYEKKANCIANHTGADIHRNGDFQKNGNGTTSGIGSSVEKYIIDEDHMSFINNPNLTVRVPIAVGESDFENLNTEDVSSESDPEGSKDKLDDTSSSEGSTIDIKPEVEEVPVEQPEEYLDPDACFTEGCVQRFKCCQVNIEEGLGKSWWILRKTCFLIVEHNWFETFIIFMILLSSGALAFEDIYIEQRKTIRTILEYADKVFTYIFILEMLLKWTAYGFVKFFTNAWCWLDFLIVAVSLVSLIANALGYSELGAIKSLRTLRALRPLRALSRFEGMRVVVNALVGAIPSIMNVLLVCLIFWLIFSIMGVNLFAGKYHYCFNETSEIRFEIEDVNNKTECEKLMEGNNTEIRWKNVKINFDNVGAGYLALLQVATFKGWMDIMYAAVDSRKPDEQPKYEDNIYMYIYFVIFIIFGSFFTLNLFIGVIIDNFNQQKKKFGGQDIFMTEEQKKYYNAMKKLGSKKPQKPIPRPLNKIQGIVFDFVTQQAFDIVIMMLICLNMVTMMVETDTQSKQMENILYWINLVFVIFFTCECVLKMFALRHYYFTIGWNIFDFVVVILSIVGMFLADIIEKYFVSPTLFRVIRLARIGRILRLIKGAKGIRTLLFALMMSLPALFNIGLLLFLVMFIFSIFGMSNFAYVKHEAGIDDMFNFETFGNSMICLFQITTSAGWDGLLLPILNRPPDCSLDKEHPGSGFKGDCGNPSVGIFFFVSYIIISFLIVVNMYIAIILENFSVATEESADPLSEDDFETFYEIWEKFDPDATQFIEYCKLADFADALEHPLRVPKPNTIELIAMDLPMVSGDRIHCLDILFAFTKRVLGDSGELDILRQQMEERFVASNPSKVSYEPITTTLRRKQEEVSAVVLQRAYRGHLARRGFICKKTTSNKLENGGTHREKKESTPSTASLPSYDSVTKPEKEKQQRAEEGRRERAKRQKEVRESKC
human NaV1.3 channel, sequence (Q9NY46 whole entry): as the sequence (Q9NY46 whole entry) above

O=C1c2ccccc2-c2c3c(cc4ccnc1c24)OCO3 [IA39, liriodenine]
Effect on Na+ currents elicited by hNaV1.6 ([1]; HEK293-hNaV1.6): no effects | Change in V1/2 of activation and inactivation vs control ([1]; hNaV1.6): ns | inhibition at 10 µM [2]: 50 ± 10% | Maximum of Inhibition of BTX-evoked VSP signal ([3]; BTX 1 µM, n = 6, % printed only): 83.78 ± 6.59% | IC50 ([3]; BTX 1 µM, n = 6, listed as liriodenine): 5 to 6 µM | IC50 ([3]; BTX 1 µM, n = 6): 5 ± 0.1 µM | Inhibitory Effects (%) on BTX-induced VSP signal (screening) ([3]; IA at 10–50 µg/mL co-incubated with 1 µM BTX): 99.1% | Effect on V1/2 activation of hNaV1.3 [4, 7]: positively shifted | Effect on current densities of hNaV1.3 at −60 mV [4, 7]: significantly decreased | Effect on slow-down of inactivation induced by BTX (AUC) ([4]; 10 µM IA, BTX 1 µM, hNaV1.3): significantly decreased | Effect on Na+ currents elicited by hNaV1.3 ([4]; 10 µM, HEK293-hNaV1.3, without BTX): no effects | Change in V1/2 of activation and inactivation vs control ([4]; hNaV1.3, 10 µM): ns | Effect on Na+ currents elicited by hNaV1.2 ([5]; HEK293-hNaV1.2): no effects | Change in V1/2 of activation and inactivation vs control ([5]; hNaV1.2): ns | IC50, suppression of Na+ currents in isolated cardiomyocytes [6]: micromolar range
